Results taken from article PMC12339163, “Combining Plant Bioactives With Antibiotics for Enhanced Antibiofilm Activity Against Uropathogenic Staphylococcus spp. and Cytotoxicity Evaluation” (Advances in Pharmacological and Pharmaceutical Sciences, 2025).
In brackets after ≈: the same amount, converted by molar mass. Where two headings read alike, the source gives them in different places.

What was measured:
[1] = system: planktonic cells of Staphylococcus aureus; assay: Checkerboard combination assay, planktonic cells; assay type: cell-based; details: S. aureus, mean; for MIC: Staphylococcus aureus
Method: (§1) The checkerboard assay, as previously described, was used for the determination of the fractional inhibitory concentration index (FICI). Briefly, 50 µL of MHB was distributed into each well of a 96-well microplate. ATBs were serially diluted along the abscissa, and NPs were serially diluted along the ordinate. Then, 100 µL of bacterial inoculum (1.5 × 10^6 CFU/mL) was added to each well and incubated at 37°C for 24 h. The final concentration ranged from 0.125 to 128 µg/mL for ATBs and 4–512 µg/mL for NPs. After incubation, a volume of 40 µL of INT solution (0.2 mg/mL) was added to each well, and the microplate was incubated at 37°C for 30 min. The wells containing bacterial inoculum and MHB were used as a positive control, while wells containing only MHB + 1% glucose were used as a negative control and used as a blank. Viable bacteria cells change the yellow dye of INT to a pink color. The MICs were considered to be the lowest NP concentrations that prevented the color change medium. Subsequently, the FICI was calculated according to the formula FICI = (MIC of the ATBs in combination/MIC of the ATBs alone) + (MIC of a natural substance in combination/MIC of the natural substance alone). FICI values were interpreted as follows: synergy when FICI ≤ 0.5; additive when 0.5 < FICI ≤ 1; indifference when 1 < FICI ≤ 4; and antagonism when FICI > 4.

[2] = system: planktonic cells of Staphylococcus saprophyticus; assay: Checkerboard combination assay, planktonic cells; assay type: cell-based; details: S. saprophyticus, mean; for MIC: Staphylococcus saprophyticus
Method: as §1

[3] = system: S. saprophyticus; assay: MIC and MBC, broth microdilution; assay type: cell-based, Staphylococcus saprophyticus; details: geometric mean, S. saprophyticus (n = 3)
Method: (§2) Seven clinical isolates of Staphylococcus spp. including 2 S. aureus, 3 S. saprophyticus, and 2 S. epidermidis were used. They were isolated from urine samples in our previous study. Two reference strains (S. aureus ATCC1026 and S. epidermidis ATCC35984) obtained from the American Type Culture Collection were also included. They were kept in the mixture of glycerol and Mueller Hinton Broth (MHB) (1:1) at −20°C, and the activation was achieved using the streak technique on Mueller Hinton agar (MHA) medium.
(§3) The MICs of ATBs and NPs were determined by the broth microdilution method as previously described. NPs and ATBs were, respectively, prepared at 4096 µg/mL and 512 µg/mL and serially diluted twofold with MHB in a 96-well microplate at a volume of 100 µL. Then, the wells were filled with 100 µL of inoculum (1.5 × 10^6 CFU/mL) to give final concentrations ranging from 1024 µg/mL to 0.5 µg/mL and 128 µg/mL to 0.062 µg/mL of NPs and ATBs, respectively. The microplates were incubated for 24 h at 37°C. Wells containing only bacterial inoculum were used as the negative control. After incubation, a volume of 40 µL of INT solution (0.2 mg/mL) was added to each well, and the microplate was incubated at 37°C for 30 min. Viable bacteria cells change the yellow dye of INT to a pink color. The MIC was considered as the lowest concentration of the sample at which there was no change in the coloration of the medium, corresponding to the complete inhibition of microbial growth.
(§4) All tests were performed in triplicate.

[4] = system: S. saprophyticus biofilm; assay: Biofilm inhibition assay (MBIC, MTT); assay type: cell-based, Staphylococcus saprophyticus; details: geometric mean, S. saprophyticus (n = 3); for minimal effective concentration: Staphylococcus saprophyticus, 24 h
Method: (§5) The biofilm formation inhibitory activity of NPs and ATBs was carried out according to the method previously described. A total of 100 µL of bacterial inoculum (1.5 × 10^6 CFU/mL) was used, and 100 µL of each sample was added to the microplate to achieve final concentrations ranging from 0.25 µg/mL to 128 µg/mL for ATBs and from 8 µg/mL to 1024 µg/mL for NPs. Then, the microplate was incubated at 37°C for 24 h. After incubation, the plates were gently emptied and washed three times with a phosphate buffer solution at pH 7.2. Then, the MTT solution (0.5 mg/mL) prepared in PBS was introduced into each well, and the microplate was further incubated at 37°C for 24 h. Untreated wells containing bacterial suspension and MHB supplemented with 1% glucose were considered positive controls, and wells containing only MHB+1% glucose without bacteria were used as blanks. After incubation, the MTT solution was aspirated, then 150 µL of DMSO was introduced to dissolve the formazan crystal formed by viable bacteria, and the optical density (OD) was measured at 570 nm using a microplate reader (VERSA-max). The percentage of biofilm inhibition was calculated using the formula below, and the minimal biofilm inhibitory concentration (MBIC) was recorded as the lowest concentration of NPs or ATBs that inhibited 100% of biofilm:(1) % biofilm inhibition=ODcontrol−ODblank−ODtest−ODblank/ODcontrol−ODblank×100.

[5] = system: S. aureus biofilm; assay: Biofilm inhibition assay (MBIC, MTT); assay type: cell-based, Staphylococcus aureus; details: geometric mean, S. aureus (n = 3); for minimal effective concentration: Staphylococcus aureus, 24 h
Method: as §5

[6] = system: S. epidermidis; assay: MIC and MBC, broth microdilution; assay type: cell-based, Staphylococcus epidermidis; details: geometric mean, S. epidermidis (n = 3)
Method: as §2, §3, §4

[7] = system: S. aureus biofilm; assay: Biofilm eradication assay (MBEC, MTT); assay type: cell-based, Staphylococcus aureus; details: geometric mean, S. aureus (n = 3); for minimal effective concentration: Staphylococcus aureus, 24 h
Method: (§6) The determination of the biofilm eradication potential of NPs and ATBs was performed as previously described. Briefly, 100 µL of bacterial inoculum (1.5 × 10^6 CFU/mL) and 100 µL of MHB + 1% glucose were introduced into the microplate, incubated at 37°C for 24 h, and the microplate was gently emptied and washed three times with PBS. Then, 200 µL of ATBs or NPs at respective concentrations ranging from 8 to 1024 µg/mL and from 16 to 2048 µg/mL were incubated at 37°C for 24 h. Once incubation was completed, the microplate was processed as described above, and the percentage of biofilm eradication was calculated using the formula below. The minimal biofilm eradicating concentration (MBEC) was recorded as the lowest concentration of the test sample that reduces 100% of biofilm:(2) % biofilm eradication=ODcontrol−ODblank−ODtest−ODblank/ODcontrol−ODblank×100.

[8] = system: S. epidermidis biofilm; assay: Biofilm eradication assay (MBEC, MTT); assay type: cell-based, Staphylococcus epidermidis; details: geometric mean, S. epidermidis (n = 3); for minimal effective concentration: Staphylococcus epidermidis, 24 h
Method: as §6

[9] = system: S. aureus; assay: MIC and MBC, broth microdilution; assay type: cell-based, Staphylococcus aureus; details: geometric mean, S. aureus (n = 3)
Method: as §2, §3, §4

[10] = Staphylococcus saprophyticus, read-out: MIC
[11] = Staphylococcus saprophyticus, natural products, read-out: MBC
[12] = Staphylococcus epidermidis, read-out: MIC
[13] = Staphylococcus epidermidis, natural products, read-out: MBC
[14] = Staphylococcus aureus, read-out: MIC
[15] = Staphylococcus aureus, natural products, read-out: MBC

SMILES	MIC ([1]; 24 h, read-out: MIC alone, NPs) [µg/mL]	MIC ([1]; read-out: MIC alone, NPs) [µg/mL]	MIC ([2]; 24 h, read-out: MIC alone, NPs) [µg/mL]	MIC ([2]; read-out: MIC alone, NPs) [µg/mL]	MIC [3, 10] [µg/mL]	MBC [3, 11] [µg/mL]	minimal effective concentration [4] [µg/mL]	minimal effective concentration [5] [µg/mL]	MIC [6, 12] [µg/mL]	MBC [6, 13] [µg/mL]	minimal effective concentration [7] [µg/mL]	minimal effective concentration [8] [µg/mL]	MIC [9, 14] [µg/mL]	MBC [9, 15] [µg/mL]	also measured
O=C(O)c1cc(O)c(O)c(O)c1 [Gallic acid, 3,4,5-trihydroxybenzoic acid]	427	427	427	427	427 (≈ 2510 µM)	> 1020	427	512	427 (≈ 2510 µM)	> 1020	299	267	427 (≈ 2510 µM)	> 1020	–
CC1(C)S[C@@H]2[C@H](NC(=O)[C@H](N)c3ccc(O)cc3)C(=O)N2[C@H]1C(=O)O [Amoxicillin, amoxicillin]	–	–	–	–	22 (≈ 60.2 µM)	–	9	1.5	26.8 (≈ 73.4 µM)	–	37.3	16	86.7 (≈ 237 µM)	–	MIC ([1]; 24 h, read-out: MIC alone, ATB): 86.7 µg/mL; MIC ([1]; read-out: MIC alone, ATB): 86.7 µg/mL; MIC ([2]; 24 h, read-out: MIC alone, ATB): 22 µg/mL; MIC ([2]; read-out: MIC alone, ATB): 22 µg/mL; MBC ([3]; Staphylococcus saprophyticus, antibiotics, read-out: MBC): > 128 µg/mL; MBC ([6]; Staphylococcus epidermidis, antibiotics, read-out: MBC): > 128 µg/mL; MBC ([9]; Staphylococcus aureus, antibiotics, read-out: MBC): > 128 µg/mL
O=c1c(O)c(-c2ccc(O)c(O)c2)oc2cc(O)cc(O)c12 [Quercetin, quercetin]	427	341	427	427	341 (≈ 1130 µM)	> 1020	427	512	512 (≈ 1690 µM)	> 1020	128	299	341 (≈ 1130 µM)	> 1020	MIC alone, NPs ([2]; listed as Que): 341.33 µg/mL
CC1=CC(=O)c2c(O)cccc2C1=O [Plumbagin, plumbagin]	4.66	4.66	8.66	8.33	8.66 (≈ 46 µM)	> 1020	6.66	10.7	90.7 (≈ 482 µM)	> 1020	32	10.7	6 (≈ 31.9 µM)	> 1020	–
NC[C@H]1O[C@H](O[C@H]2[C@H](O)[C@@H](O[C@H]3O[C@H](CO)[C@@H](O)[C@H](N)[C@H]3O)[C@H](N)C[C@@H]2N)[C@H](O)[C@@H](O)[C@@H]1O [Kanamycin, kanamycin]	–	–	–	–	–	–	–	–	–	–	–	–	–	–	MIC alone, ATB [1]: 22.66 µg/mL; MIC alone, ATB [2]: 14 µg/mL; MBC ([3]; antibiotics): — (> 128 µg/mL for ATBs); MIC [3]: 14 µg/mL (≈ 28.9 µM); MBIC [4]: 4.08 µg/mL; MBIC [5]: 1.08 µg/mL; MBC ([6]; antibiotics): 12 µg/mL (≈ 24.8 µM); MIC [6]: 7.33 µg/mL (≈ 15.1 µM); MBEC [7]: 14.66 µg/mL; MBEC [8]: 13.33 µg/mL; MBC ([9]; antibiotics): 69.33 µg/mL (≈ 143 µM); MIC [9]: 22.66 µg/mL (≈ 46.8 µM)
COc1ccc2cc3[n+](cc2c1OC)CCc1cc2c(cc1-3)OCO2 [Berberine, berberine]	139	139	213	213	149	> 1020	85.3	171	213	> 1020	149	171	139	> 1020	MIC alone, NPs ([2]; listed as Ber): 298.66 µg/mL
